Assay results taken from patent US8486634B2, “Amplifying bisulfite-treated template” (Ambergen, Inc., priority 2007, dated 2013).

Target: T1, protein kinase Cα (PKCα) (Homo sapiens, UniProt P17252)
T1 construct: isolate and photo-release endogenous PKCα from the undiluted detergent fractionated HeLa cell extracts; endogenous in cells; host or cells: HeLa cells (ATCC)
Experiment: Phorbol ester (PMA) mediated PKCα sub-cellular translocation, measured by kinase activity after isolation with photocleavable antibodies
Assay type: cell-based
Settings: cultured HeLa cells stimulated with 200 nM PMA for 5 min, detergent-fractionated, relative distribution based on kinase activity, n=4
Experimental: FIG. 20. Phorbol ester (PMA) mediated protein kinase Cα (PKCα) sub-cellular translocation as measured by functional activity following isolation with photocleavable antibodies. Cultured HeLa cells were stimulated with 200 nM PMA for 5 min and detergent fractionated into the cytosol and membrane compartments prior to isolation and purification with the photocleavable antibodies.
Cultured HeLa cells (ATCC; Manassas, Va.) were stimulated for 5 min with 200 nM Phorbol-12-Myristate-13-Acetate (PMA; EMD Biosciences, Inc., San Diego, Calif.) and subsequently detergent fractionated into sub-cellular compartments according to reported procedures [Ramsby et al. (1994) Electrophoresis 15, 265-277; Ramsby & Makowski. (1999) Methods Mol Biol 112, 53-66; Chiang et al. (2000) J Biochem Biophys Methods 46, 53-68]. PMA is a potent activator of PKCα and is well known to cause translocation of the kinase from the cytosolic to the membrane sub-cellular compartments [Ross & Joyner. (1997) Endothelium 5, 321-332; Bazan & Rapoport. (1996) J Pharmacol Toxicol Methods 36, 87-95; Yazlovitskaya & Melnykovych. (1995) Cancer Lett 88, 179-183]. […]

Compound: CCCCCCCCCCCCCC(=O)O[C@@H]1[C@@H](C)[C@@]2(O)[C@@H](C=C(CO)C[C@]3(O)C(=O)C(C)=C[C@@H]23)[C@@H]2C(C)(C)[C@]12OC(C)=O [PMA, Phorbol-12-Myristate-13-Acetate]
- PKCα distribution, membrane (baseline 21±2% membrane): 84±3%
- PKCα distribution, cytosol (baseline 79±7% cytosol): 16±4%
